Measurements taken from patent US8545876B1, “Modified drugs for use in liposomal nanoparticles” (The University of British Columbia, priority 2008, dated 2013).
Like-named read-outs stand apart in the source and are kept apart here.

What was measured:
[1] = Chemical (hydrolytic) stability in buffered aqueous solutions; assay type: physicochemical
Procedure: (§1) The chemical stability of the docetaxel derivatives was determined in aqueous solutions at different pH values and temperatures, and in biological media (mouse plasma). Aliquots of the docetaxel derivatives in acetonitrile were mixed with buffered citrate/HEPES (10 mM/10 mM) solutions at pH 4.0 and 7.5, or in mouse plasma in 1 mL glass HPLC sample vials sealed with Teflon-lined caps (final volume 0.25 ml, final docetaxel derivative concentration 50 µg/ml). Drug stability was determined 1, 4 and 24 hrs after incubation at 37° C. by UPLC-UV. At the indicated time points, a 3-fold excess of methanol/0.1% TFA was added to the sample. Citrate/HEPES buffered samples were analyzed by UHPLC as described above. For plasma samples, proteins precipitated by the addition of methanol/0.1% TFA pelleted by centrifugation at 14,000×g and supernatants were analyzed for the drug derivatives. Heparanized mouse plasma was diluted to 50% with 100 mM sodium-phosphate buffer to keep the pH constant throughout the experiment.
(§2) To be suitable for formulation in LN, derivatives must be stable at pH 4 (the pH present inside the LN carrier). In addition, prodrug derivatives should readily form the active drug under physiological conditions (e.g., at pH 7.4 and/or in the presence of endogenous enzymes) once released from the LN. […] TD1-3 and TD7 were selected for loading into LN and testing of such LN for drug release in vitro.

[2] = Stability in mouse plasma; assay type: in vitro ADME; settings: 24 hour incubation in mouse plasma, 37° C.
Procedure: as §1, §2

[3] = tested on: breast cancer cell line MDA435/LCC6; experiment: In vitro cytotoxicity, Alamar Blue assay; assay type: cell-based; settings: Homo sapiens; MDA-MB-435/LCC6, 72-h drug exposure
Procedure: (§3) Anticancer activity was evaluated against a panel of 3 human cancer cell lines, including the ovarian cancer cell line ES-2, the prostate cancer cell line PC3 and the breast cancer cell line MDA435/LCC6 (BC Cancer Research Centre, Vancouver, BC) (Fields and Lancaster, Am. Biotechnol. Lab., 11:48-50 (1993); Nakayama et al., J. Immunol. Methods, 204:205-208 (1997)). Cytotoxicity was determined using the Alamar Blue assay after a 72-h drug exposure period. […] The plates were returned to the incubator for 4 h; sample fluorescence was determined at λex=530 nm and λem=590 nm. Viability was calculated according to: Cell viability (%)=(Fplus drug−Fbackground)/(Fminus drug−Fbackground)*100, where Fplus drug is the fluorescence reading in the presence of drug, Fminus drug the cell control in the absence of drug and Fbackground the background fluorescence (media alone).

[4] = tested on: ovarian cancer cell line ES-2; experiment: In vitro cytotoxicity, Alamar Blue assay; assay type: cell-based; settings: Homo sapiens; ES-2, 72-h drug exposure
Procedure: as §3

[5] = tested on: prostate cancer cell line PC3; experiment: In vitro cytotoxicity, Alamar Blue assay; assay type: cell-based; settings: Homo sapiens; PC-3, 72-h drug exposure
Procedure: as §3

[6] = Single dose tolerability (MTD) study; assay type: in vivo, SCID/Rag2-M mice; settings: for MTD at 14 days: SCID/Rag2-M, mouse, in vivo, iv, single dose i.v.
Procedure: Tolerability studies were aimed at establishing the maximum tolerated dose (MTD) and the dose range for use in efficacy studies (efficacy studies were based on a single i.v. injection). […] The studies were based on administration of a single dose and relied on 3 mice/group and a dose escalation strategy based on three dose levels for the derivative and Taxotere and five dose levels for the LN formulations (DSPC/Chol 55:45 mol % at a prodrug/lipid weight ratio of 0.2 mg/mg). All formulations were injected i.v. via the lateral tail vein in a volume of 200 μl/20 g mouse.
Mice were monitored daily for signs of toxicity over a period of 14 days following drug administration. Tolerability was assessed by changes in body weight as well as behavioral parameters. […] Body weights of individual mice were measured every second day over the course of the study. If weight loss was not a good predictor of tolerability, the dose where no animals needed to be terminated due to toxicity was used.

[7] = mouse, in vivo, iv, 20 mg/kg
Description: The pharmacokinetics (PK) of LN-encapsulated docetaxel derivatives were compared to the PK of Taxotere™, the commercial docetaxel formulation, and derivatives formulated in the same manner as Taxotere™. Taxotere™ and similarly formulated derivatives were formulated as described in the prescribing information for Taxotere™ (Sanofi-Aventis, U.S.) using ethanol/polysorbate 80/physiological saline solution to dissolve the drug. The docetaxel derivative was encapsulated in DSPC/chol, DPPC/Chol and DMPC/Chol LN (55:45 mol %) at a drug-to-lipid ratio of 0.2 wt/wt using the ammonium sulfate loading technique. The lipid components contained trace amounts (0.15 μCi/mg lipid) of the lipid marker [^3H]CHE, allowing monitoring of the elimination of both the prodrug and the LN carrier from circulation.
The PK and in vivo release studies were based on 4 time points (1, 4, 8 and 16 hrs) and 4 mice per time point. […] The methanolic solutions were centrifuged for 30 min at 15,000×g at 4° C. to pellet the proteins and the supernatant was analyzed for docetaxel and drug derivatives by UHPLC. For LN formulations, 25-50 μl of plasma was added to scintillation fluid (PicoFluor 40, Perkin Elmer) and analyzed for lipid levels ([^3H]-CHE radioactivity) by scintillation counting.

[8] = Chemical (hydrolytic) stability in buffered aqueous solutions; assay type: physicochemical; settings: 24 hour incubation in pH 7.4 buffer, 37° C.
A431 tumors = experiment: In vivo kinetics and anticancer activity of vincristine formulations; set-up: species or system SCID mice; settings: 2 mg/kg i.v.
Procedure: FIG. 9. In vivo kinetics and anticancer activity of free vincristine (VCR) (2 mg/kg) and vincristine (2 mg/kg) encapsulated in 100 nm egg sphingomyelin/cholesterol LN injected i.v. in SCID mice bearing A431 tumors. (8A) Concentration profile of free VCR (□) and LN formulated VCR (●) in blood plasma over time. […] (8B) Release of free VCR (●) from LN formulations (% retention) over time. […] (8C) Tumor concentration ([…]) of VCR over time after administration of free VCR (□) and LN formulated VCR (●). […] (8D) Anticancer activity of free VCR (1) and LN formulated VCR (●) relative to saline control (▪). […] Nano-liposomal formulations increase the amount of drug reaching sites of tumor growth and prolongs the duration of exposure to therapeutically active levels of drug, resulting in increased antitumor activity.

SMILES	Prodrug levels (% remaining), pH 4 ([1]; 24 hour incubation in pH 4 buffer, 37° C.) [%]	half-life at 50 g/ml ([1]; citrate/HEPES (10 mM/10 mM) buffered aqueous solution, pH 4, read-out: hydrolysis half-life (converted)) [days]	Prodrug levels (% remaining), Plasma [2] [%]	IC50 [3] [pM]	IC50 [4] [pM]	IC50 [5] [pM]	MTD at 14 days ([6]; docetaxel equivalents, read-out: MTD) [mg/kg]	MTD at 14 days ([6]; mg/kg prodrug, read-out: MTD expressed as prodrug) [mg/kg]	Clin. Observations ([6]; docetaxel equivalent dose 20 mg/kg, 20 mg/kg)	Clin. Observations ([6]; docetaxel equivalent dose 20 mg/kg, listed as Derivative, 20 mg/kg)	DRD (drug-related death) ([6]; dose 16 mg/kg)	DRD (drug-related death) ([6]; dose 20 mg/kg)	Clin. Observations ([6]; dose 24 mg/kg)	DRD (drug-related death) ([6]; dose 24 mg/kg)	time by which plasma concentrations were below detectable levels ([7]; Swiss Webster) [h]	plasma circulation half-lives [7]	Prodrug levels (% remaining), pH 7.4 [8] [%]	pKa (physchem)	concentration profile in blood plasma over time (A431 tumors)
CC(=O)O[C@@]12CO[C@@H]1C[C@H](O)[C@@]1(C)C(=O)[C@H](O)C3=C(C)[C@@H](OC(=O)[C@H](OC(=O)CCCN4CCN(C)CC4)[C@@H](NC(=O)OC(C)(C)C)c4ccccc4)C[C@@](O)([C@@H](OC(=O)c4ccccc4)C12)C3(C)C (stereo partly shown) [TD1, 2′-O-(N-methyl-piperazinylbutanoic acid ester) derivative of docetaxel]	94	~49	12	< 100	100	500	16	20	acute toxicity (lethality)	Acute toxicity	0/3	1/1	Acute toxicity	3/3	≤ 2	minutes	23	7.7	
CC[C@]1(O)C[C@H]2CN(CCc3c([nH]c4ccccc34)[C@@](C(=O)OC)(c3cc4c(cc3OC)N(C=O)[C@H]3[C@@](O)(C(=O)OC)[C@H](OC(C)=O)[C@]5(CC)C=CCN6CC[C@]43[C@@H]65)C2)C1 [free VCR, vincristine]																			rapidly removed from circulation
